Read-outs that look alike come from different tables or passages of the source.
Test system: SW480 cancer cells
Assay: Proteome profiling of compound-treated SW480 cancer cells (24 h, approx. IC50, CYT and NE fractions)
Assay type: cell-based, human
Conditions: for N° significantly regulated proteins, Total: CYT and NE; for N° proteins down-regulated, CYT / N° proteins upregulated, CYT: cytoplasmic fraction
Protocol: To gain insight into potential modes of action and derive structure–activity relationships on a molecular level, proteomic profiling experiments were carried out based on label-free quantification (LFQ) by nano-liquid chromatography tandem mass spectrometry (nLC-MS/MS). […] Six replicates were used per condition. The perturbations were evaluated at subcellular resolution by fractionating cells into cytoplasmic (CYT) and nuclear (NE) protein fractions. Those have been separately proteolytically digested and analysed (Fig. 3A). The perturbations with the 3-Et-NQ and 3-Morph-NQ complexes were performed against their respective solvent-treated controls (CON), yielding a total of 72 samples. […] Statistical significance of individual protein regulations was calculated by multiple testing-corrected P-values based on 5% false discovery rate (FDR = 0.05 and S0 = 0.1).
The position of each group represents the summed fold-changes of the individual proteins in the group according to the subcellular space, i.e., CYT and NE fractions, while the size represents the number of proteins in each group. […]
Proteome profiling of compound-treated SW480 cancer cells […]
cells per well and left to adhere in complete cell culture medium. After 24 h, the medium was exchanged with fresh complete medium (DMSO mock control) or fresh medium containing […]
solution in DMSO, respectively) and incubated for another 24 h. Each condition was carried out in hexuplicates. The cells were processed according to a nucleocytoplasmic fractionation protocol as previously described.3 All steps were performed on ice. The medium was removed, and the cells were washed twice with 1×PBS (phosphate buffered saline, 3 mL). Then, PBS was thoroughly removed. Isotonic lysis buffer (10 mM HEPES, 10 mM NaCl, 3.5 mM MgCl2, 1 mM EGTA, 0.25 M Sucrose, 0.5% Triton X-100) containing protease inhibitors (1% PMSF, Sigma, and 1% protease and phosphatase inhibitor cocktail, Roche) was added to the flasks, the cells were scraped off and transferred into labelled 15 mL Falcon tubes. The cellular membrane was ruptured using shear stress by pressing the cell suspension through a syringe 9–12 times. Membrane rupture with intact nuclei was monitored under a microscope. After centrifugation (960 g, 5 min), the supernatant containing the cytoplasmic (CYT) proteins was transferred into new tubes containing ice-cold ethanol (1 : 5, HPLC grade) and precipitated […]
overnight at –20 °C. The pellet containing the nuclei was incubated with a hypertonic solution (10 mM Tris-HCl, 1 mM EDTA and 0.5 M NaCl) and subsequently diluted 1:10 with NP-40 buffer (10 mm Tris-HCl, 1 mm EDTA and 0.5% Triton X-100) containing protease inhibitors (1% PMSF, Sigma, and 1% protease and phosphatase inhibitor cocktail, Roche). After centrifugation (960 g, 5 min), the soluble nuclear (NE) proteins were also transferred into new tubes containing ice-cold ethanol (1 : 5, HPLC grade) and precipitated overnight at –20 °C.
The precipitated proteins were finally pelleted by centrifugation (5000 g, 30 min, 4 °C), the solution was decanted and the pellet dried under vacuum.

[1] = nuclear fraction, FDR = 0.05, S0 = 0.1

CCC1=C2[O][Ru][O]C2(n2cccn2)c2ccccc2C1=O.Cc1ccc(C(C)C)cc1 (stereo not shown) [Compound 1a, [(3-ethyl-4-oxo-(pyrazolyl)-dihydronaphthalene)(cymene)ruthenium(II)]]
N° proteins down-regulated, NE: 211 | N° proteins upregulated, NE: 178 | N° significantly regulated proteins, Total: 810 | TP53 regulation in cytoplasmic fraction (CYT fraction): strongest down-regulated protein | N° proteins down-regulated, CYT (FDR = 0.05, S0 = 0.1): 298 | N° proteins upregulated, CYT (FDR = 0.05, S0 = 0.1): 123

Cc1ccc(C(C)C)cc1.O=C1C(CN2CCOCC2)=C2[O][Ru][O]C2(n2cccn2)c2ccccc21 (stereo not shown) [Compound 1b]
N° significantly regulated proteins, Total: 1498 | GO BP Cell cycle, summed fold-changes (CYT fraction): -2.0 | GO BP Cell division, summed fold-changes (CYT fraction): 1.8 | GO BP Chromatin organization, summed fold-changes (CYT fraction): -9.6 | GO BP DNA damage response, summed fold-changes (CYT fraction): -1.3 | GO BP DNA repair, summed fold-changes (CYT fraction): -5.7 | GO BP DNA replication, summed fold-changes (CYT fraction): -0.75 | GO BP Intracellular protein transport, summed fold-changes (CYT fraction): -1.2 | GO BP Mitotic cytokinesis, summed fold-changes (CYT fraction): 0.635 | GO BP Negative regulation of DNA-templated transcription, summed fold-changes (CYT fraction): -4.7 | GO BP Nucleocytoplasmic transport, summed fold-changes (CYT fraction): 0.157 | GO BP Positive regulation of DNA-templated transcription, summed fold-changes (CYT fraction): -4.1 | GO BP Proteasome-mediated ubiquitin-dependent protein catabolic process, summed fold-changes (CYT fraction): 0.556 | GO BP Protein folding, summed fold-changes (CYT fraction): 0.665 | GO BP Protein stabilization, summed fold-changes (CYT fraction): 1.4 | GO BP Protein transport, summed fold-changes (CYT fraction): -4.1 | GO BP Purine nucleotide biosynthetic process, summed fold-changes (CYT fraction): -1.4 | GO BP RNA splicing, summed fold-changes (CYT fraction): 2.7 | GO BP Regulation of apoptotic process, summed fold-changes (CYT fraction): -0.9 | GO BP Regulation of cell fate specification, summed fold-changes (CYT fraction): -2.6 | GO BP Regulation of double-strand break repair, summed fold-changes (CYT fraction): -0.5 | GO BP Regulation of stem cell differentiation, summed fold-changes (CYT fraction): -2.1 | GO BP Response to oxidative stress, summed fold-changes (CYT fraction): -2.8 | GO BP Ribosomal small subunit biogenesis, summed fold-changes (CYT fraction): 3.8 | GO BP Ribosome biogenesis, summed fold-changes (CYT fraction): 1.0 | GO BP Ubiquitin-dependent protein catabolic process, summed fold-changes (CYT fraction): -4.3 | GO BP Vesicle-mediated transport, summed fold-changes (CYT fraction): -2.0 | GO BP mRNA processing, summed fold-changes (CYT fraction): 2.8 | GO BP mRNA splicing, via spliceosome, summed fold-changes (CYT fraction): 5.8 | GO BP mRNA transport, summed fold-changes (CYT fraction): 3.1 | GO BP rRNA processing, summed fold-changes (CYT fraction): 6.9 | GO CC Azurophil granule lumen, summed fold-changes (CYT fraction): -3.8 | GO CC Chromatin, summed fold-changes (CYT fraction): -3.8 | GO CC Chromosome, centromeric region, summed fold-changes (CYT fraction): 2.2 | GO CC Chromosome, summed fold-changes (CYT fraction): 0.0303 | GO CC Chromosome, telomeric region, summed fold-changes (CYT fraction): -5.4 | GO CC Condensin complex, summed fold-changes (CYT fraction): 1.7 | GO CC Cytoskeleton, summed fold-changes (CYT fraction): 2.2 | GO CC Endosome, summed fold-changes (CYT fraction): -2.0 | GO CC Extracellular exosome, summed fold-changes (CYT fraction): -48.5 | GO CC Fibrillar center, summed fold-changes (CYT fraction): 1.3 | GO CC Ficolin-1-rich granule lumen, summed fold-changes (CYT fraction): -4.9 | GO CC Focal adhesion, summed fold-changes (CYT fraction): -5.9 | GO CC Intracellular membrane-bounded organelle, summed fold-changes (CYT fraction): -2.0 | GO CC Kinetochore, summed fold-changes (CYT fraction): 1.6 | GO CC Lipid droplet, summed fold-changes (CYT fraction): -1.3 | GO CC Lysosome, summed fold-changes (CYT fraction): -2.9 | GO CC Microtubule cytoskeleton, summed fold-changes (CYT fraction): 1.6 | GO CC Mitochondrion, summed fold-changes (CYT fraction): -13.5 | GO CC Nuclear envelope, summed fold-changes (CYT fraction): -0.6 | GO CC Nuclear speck, summed fold-changes (CYT fraction): 3.4 | GO CC Nucleolus, summed fold-changes (CYT fraction): 1.4 | GO CC Nucleoplasm, summed fold-changes (CYT fraction): -8.6 | GO CC Nucleus, summed fold-changes (CYT fraction): -23.5 | GO CC Proteasome complex, summed fold-changes (CYT fraction): 0.475 | GO CC Protein-containing complex, summed fold-changes (CYT fraction): -2.9 | GO CC Ribonucleoprotein complex, summed fold-changes (CYT fraction): 3.1 | GO CC SCAR complex, summed fold-changes (CYT fraction): 0.9 | GO CC Small-subunit processome, summed fold-changes (CYT fraction): 4.9 | GO CC Spliceosomal complex, summed fold-changes (CYT fraction): 2.7 | GO CC Transcription repressor complex, summed fold-changes (CYT fraction): -2.7 | GO CC Vesicle, summed fold-changes (CYT fraction): -2.7 | KEGG pathway ATP-dependent chromatin remodeling, summed fold-changes (CYT fraction): -1.8 | KEGG pathway Apoptosis, summed fold-changes (CYT fraction): 2.5 | KEGG pathway Basal transcription factors, summed fold-changes (CYT fraction): -1.0 | KEGG pathway Biosynthesis of amino acids, summed fold-changes (CYT fraction): -5.4 | KEGG pathway Biosynthesis of cofactors, summed fold-changes (CYT fraction): 2.8 | KEGG pathway Cell cycle, summed fold-changes (CYT fraction): -3.3 | KEGG pathway Nucleocytoplasmic transport, summed fold-changes (CYT fraction): 0.8 | KEGG pathway Polycomb repressive complex, summed fold-changes (CYT fraction): -2.9 | KEGG pathway Proteasome, summed fold-changes (CYT fraction): -0.152 | KEGG pathway Ribosome biogenesis in eukaryotes, summed fold-changes (CYT fraction): 1.9 | GO BP Cell cycle, summed fold-changes (NE fraction): 26.1 | GO BP Cell division, summed fold-changes (NE fraction): 26.9 | GO BP Chromatin organization, summed fold-changes (NE fraction): 28.0 | GO BP DNA damage response, summed fold-changes (NE fraction): 22.6 | GO BP DNA repair, summed fold-changes (NE fraction): 35.2 | GO BP DNA replication, summed fold-changes (NE fraction): 6.1 | GO BP Intracellular protein transport, summed fold-changes (NE fraction): -31.2 | GO BP Mitotic cytokinesis, summed fold-changes (NE fraction): 4.0 | GO BP Negative regulation of DNA-templated transcription, summed fold-changes (NE fraction): 65.6 | GO BP Nucleocytoplasmic transport, summed fold-changes (NE fraction): 26.1 | GO BP Positive regulation of DNA-templated transcription, summed fold-changes (NE fraction): 71.8 | GO BP Proteasome-mediated ubiquitin-dependent protein catabolic process, summed fold-changes (NE fraction): 26.0 | GO BP Protein folding, summed fold-changes (NE fraction): -27.7 | GO BP Protein stabilization, summed fold-changes (NE fraction): -4.7 | GO BP Protein transport, summed fold-changes (NE fraction): -9.8 | GO BP Purine nucleotide biosynthetic process, summed fold-changes (NE fraction): -7.4 | GO BP RNA splicing, summed fold-changes (NE fraction): 29.0 | GO BP Regulation of apoptotic process, summed fold-changes (NE fraction): 4.6 | GO BP Regulation of cell fate specification, summed fold-changes (NE fraction): 10.8 | GO BP Regulation of double-strand break repair, summed fold-changes (NE fraction): 14.0 | GO BP Regulation of stem cell differentiation, summed fold-changes (NE fraction): 12.8 | GO BP Response to oxidative stress, summed fold-changes (NE fraction): -22.0 | GO BP Ribosomal small subunit biogenesis, summed fold-changes (NE fraction): 25.3 | GO BP Ribosome biogenesis, summed fold-changes (NE fraction): 6.9 | GO BP Ubiquitin-dependent protein catabolic process, summed fold-changes (NE fraction): 4.9 | GO BP Vesicle-mediated transport, summed fold-changes (NE fraction): -26.9 | GO BP mRNA processing, summed fold-changes (NE fraction): 25.4 | GO BP mRNA splicing, via spliceosome, summed fold-changes (NE fraction): 37.9 | GO BP mRNA transport, summed fold-changes (NE fraction): 17.5 | GO BP rRNA processing, summed fold-changes (NE fraction): 40.4 | GO CC Azurophil granule lumen, summed fold-changes (NE fraction): -24.9 | GO CC Chromatin, summed fold-changes (NE fraction): 92.4 | GO CC Chromosome, centromeric region, summed fold-changes (NE fraction): 9.3 | GO CC Chromosome, summed fold-changes (NE fraction): 28.8 | GO CC Chromosome, telomeric region, summed fold-changes (NE fraction): 30.4 | GO CC Condensin complex, summed fold-changes (NE fraction): 1.4 | GO CC Cytoskeleton, summed fold-changes (NE fraction): -23.7 | GO CC Endosome, summed fold-changes (NE fraction): -21.5 | GO CC Extracellular exosome, summed fold-changes (NE fraction): -325.4 | GO CC Fibrillar center, summed fold-changes (NE fraction): 22.1 | GO CC Ficolin-1-rich granule lumen, summed fold-changes (NE fraction): -29.3 | GO CC Focal adhesion, summed fold-changes (NE fraction): -55.9 | GO CC Intracellular membrane-bounded organelle, summed fold-changes (NE fraction): -21.7 | GO CC Kinetochore, summed fold-changes (NE fraction): 23.6 | GO CC Lipid droplet, summed fold-changes (NE fraction): -14.4 | GO CC Lysosome, summed fold-changes (NE fraction): -44.7 | GO CC Microtubule cytoskeleton, summed fold-changes (NE fraction): -18.2 | GO CC Mitochondrion, summed fold-changes (NE fraction): -134.2 | GO CC Nuclear envelope, summed fold-changes (NE fraction): 21.5 | GO CC Nuclear speck, summed fold-changes (NE fraction): 55.6 | GO CC Nucleolus, summed fold-changes (NE fraction): 104.6 | GO CC Nucleoplasm, summed fold-changes (NE fraction): 270.4 | GO CC Nucleus, summed fold-changes (NE fraction): 135.2 | GO CC Proteasome complex, summed fold-changes (NE fraction): 12.2 | GO CC Protein-containing complex, summed fold-changes (NE fraction): -21.9 | GO CC Ribonucleoprotein complex, summed fold-changes (NE fraction): 3.5 | GO CC SCAR complex, summed fold-changes (NE fraction): -6.0 | GO CC Small-subunit processome, summed fold-changes (NE fraction): 29.5 | GO CC Spliceosomal complex, summed fold-changes (NE fraction): 22.0 | GO CC Transcription repressor complex, summed fold-changes (NE fraction): 12.8 | GO CC Vesicle, summed fold-changes (NE fraction): -24.1 | KEGG pathway ATP-dependent chromatin remodeling, summed fold-changes (NE fraction): 35.8 | KEGG pathway Apoptosis, summed fold-changes (NE fraction): -20.6 | KEGG pathway Basal transcription factors, summed fold-changes (NE fraction): 10.6 | KEGG pathway Biosynthesis of amino acids, summed fold-changes (NE fraction): -32.4 | KEGG pathway Biosynthesis of cofactors, summed fold-changes (NE fraction): -31.7 | KEGG pathway Cell cycle, summed fold-changes (NE fraction): 19.2 | KEGG pathway Nucleocytoplasmic transport, summed fold-changes (NE fraction): 34.5 | KEGG pathway Polycomb repressive complex, summed fold-changes (NE fraction): 17.0 | KEGG pathway Proteasome, summed fold-changes (NE fraction): 16.8 | KEGG pathway Ribosome biogenesis in eukaryotes, summed fold-changes (NE fraction): 28.9 | N° proteins down-regulated, CYT (FDR = 0.05, S0 = 0.1): 8 | N° proteins upregulated, CYT (FDR = 0.05, S0 = 0.1): 8 | N° proteins down-regulated, NE [1]: 772 | N° proteins upregulated, NE [1]: 710 | regulated proteins in CYT (up- and down-regulated): 16

— paper PMC12320299 (Chemical Science, 2025)
